# Measured values from PMC6225232, “Design, Synthesis and Biological Evaluation of Ligustrazine-Flavonoid Derivatives as Potential Anti-Tumor Agents” (Molecules : A Journal of Synthetic Chemistry and Natural …, 2018).
# Legend:
# Format in all cases: cell-based, human
# [1] = system: HepG-2; assay: MTT cytotoxicity assay, HepG-2
# Protocol: (§1) Five kinds of tumor cell lines and one normal endothelial cell were routinely cultured respectively in RPMI 1640 medium supplemented with 10% (V/V) FBS and 1% (V/V) penicillin-streptomycin, incubated at 37 °C in a 5% CO2 containing incubator. The five tumor cell lines were plated onto 96-well sterile plates in 100 μL/well of medium at a density of 3.5 × 10^3 cells per well and incubated at 37 °C with 5% CO2 for 24 h. Then luteolin, baicalein, apigenin, chrysin, quercetin, fisetin, genistein, daidzein, naringenin, DDP and compounds 10–25 were added at various concentrations (5, 10, 20, 40, 50 μΜ). Each plate contained control group, blank group, drug group and positive group (DDP). After 72 h, 20 μL MTT in phosphate buffered saline (PBS, 5 mg/mL) was added to each well and the plates were incubated at 37 °C for 4 h, then removing the liquid and adding dimethyl sulfoxide (DMSO, 100 μL) to dissolve the MTT formazan. The optical density (OD) for each well was measured on a BIORAD 550 spectrophotometer plate reader (Bio-Gene Technology Ltd., Guangzhou, China) at a wavelength of 490 nm. All tests were carried out three times in parallel.
# [2] = system: MCF-7; assay: MTT cytotoxicity assay, MCF-7
# Protocol: as §1
# [3] = system: HeLa; assay: MTT cytotoxicity assay, HeLa; conditions: 72 h
# Protocol: as §1
# [4] = system: Bel-7402; assay: MTT cytotoxicity assay, Bel-7402
# Protocol: as §1
# [5] = system: HT-29; assay: MTT cytotoxicity assay, HT-29
# Protocol: as §1
# [6] = system: HUVEC-12; assay: MTT cytotoxicity assay using HUVEC-12 cell; conditions: for Proliferation Rate (%) 2.5 μM / Proliferation Rate (%) 5 μM / Proliferation Rate (%) 10 μM / Proliferation Rate (%) 20 μM / Proliferation Rate (%) 40 μM: HUVEC-12, 24 h, negative = inhibition; for IC50: MTT, 24 h
# Protocol: Five kinds of tumor cell lines and one normal endothelial cell were routinely cultured respectively in RPMI 1640 medium supplemented with 10% (V/V) FBS and 1% (V/V) penicillin-streptomycin, incubated at 37 °C in a 5% CO2 containing incubator.
# The HUVEC-12 cell were seeded in 96-well plates (6.0 × 10^3 cells/ well), and incubated at 37 °C in a 5% CO2 containing incubator. After 24 h, the medium was replaced with fresh medium containing the compounds to be tested. Compounds 14, 19 and DDP were added in final concentrations ranging from 2.5 to 40 μM. Each plate contained control group, blank group and drug group. After 24 h, 20 μL MTT was added to each well and the plates were incubated at 37 °C for 4 h, then removing the liquid and adding dimethyl sulfoxide (DMSO) (100 μL) to dissolve the MTT formazan. The optical density (OD) for each well was measured on a BIORAD 550 spectrophotometer plate reader at a wavelength of 490 nm. All tests were carried out three times in parallel. The proliferation inhibition rates of tumor cells were calculated by {1 − [OD490 (Drug group) − OD490 (Blank group)]/[OD490 (Control group) − OD490 (Blank group)]} × 100%.
# [7] = system: Bel-7402 cells; assay: Apoptosis analysis by flow cytometry, Annexin V-FITC/PI staining; conditions: 72 h, control 5.4%
# Protocol: The Bel-7402 cells were plated onto 6-well sterile plates (4.8 × 10^4 cells/well) and placed at 37 °C with 5% CO2 for 24 h. Then compound 14 at various concentrations (0, 5, 10, 20 μΜ) was added. After 72 h, all cells were collected respectively with the right amount of trypsin (without EDTA) digestion. Then the cells were washed with cold PBS twice and centrifuged at 1000 rpm for 5 min. The harvested cells were resuspended in 200 μL binding buffer, which contained 10 μL Annexin V-FITC and PI. After avoided light reaction for 15 min, the cells were analyzed with a flow cytometer.
# [8] = system: Bel-7402 cells; assay: Morphological analysis using Giemsa and DAPI staining; conditions: 72 h
# Protocol: The Bel-7402 cells were plated onto 12-well sterile plates at a density of 2.4 × 10^4 cells per well and incubated at 37 °C in a 5% CO2 containing incubator. Then the cells were incubated in the presence of compound 14 at various concentrations (0, 10, 20, 40 μΜ) for 72 h. Then cells were washed with PBS twice, fixed with cold ethanol and 4% paraformaldehyde (pH = 7.4) for 10 min respectively and washed with PBS again. Then fixed cells were stained with 6% Giemsa solution or DAPI at the concentration of 1 mg/mL for 5 min in the dark. Finally, the cells washed with water and dried. The cell morphological changes were observed by fluorescent microscopy and images were captured by digital camera.
Compound,"IC50 ([1]; Homo sapiens, HepG2, 72 h) [µM]","IC50 ([2]; Homo sapiens, MCF7, 72 h) [µM]",IC50 ([3]; Homo sapiens) [µM],"IC50 ([4]; Homo sapiens, Bel-7402, 72 h) [µM]","IC50 ([5]; Homo sapiens, HT-29, 72 h) [µM]",further results
O=c1cc(-c2ccc(O)c(O)c2)oc2cc(O)cc(O)c12 [Luteolin],11.8 ± 0.44,17 ± 0.31,21.3 ± 1.12,14.5 ± 0.68,19.2 ± 1.17,–
O=c1c(O)c(-c2ccc(O)c(O)c2)oc2cc(O)ccc12 [Fisetin],17.4 ± 1.04,38.1 ± 1.83,20.9 ± 1.65,25.5 ± 1.54,23.9 ± 0.81,–
"Cc1nc(C)c(COc2ccc(-c3coc4cc(OCc5nc(C)c(C)nc5C)cc(O)c4c3=O)cc2)nc1C [Compound 17, 5-Hydroxy-7-((3,5,6-trimethylpyrazin-2-yl)methoxy)-3-(4-((3,5,6-trimethylpyrazin-2-yl)methoxy)-phenyl)-4H-chromen-4-one]",> 40,> 40,> 40,> 40,10.7 ± 1.35,–
"Cc1nc(C)c(COc2ccc(/C=C/C(=O)c3c(OCc4nc(C)c(C)nc4C)cc(OCc4nc(C)c(C)nc4C)cc3OCc3nc(C)c(C)nc3C)cc2)nc1C [Compound 16, (E)-3-(4-((3,5,6-Trimethylpyrazin-2-yl)methoxy)phenyl)-1-(2,4,6-tris((3,5,6-trimethylpyrazin-2-yl)-methoxy)phenyl)prop-2-en-1-one]",20.6 ± 1.39,16.5 ± 0.45,30.5 ± 2.62,> 40,34.4 ± 2.32,–
O=c1c(-c2ccc(O)cc2)coc2cc(O)ccc12 [Daidzein],21.8 ± 1.53,36.8 ± 1.48,> 40,> 40,> 40,–
O=c1cc(-c2ccccc2)oc2cc(O)cc(O)c12 [Chrysin],15.6 ± 0.3,32.1 ± 2.78,> 40,35 ± 1.46,30.3 ± 1.96,–
"Cc1nc(C)c(COc2ccc(-c3coc4cc(OCc5nc(C)c(C)nc5C)ccc4c3=O)cc2)nc1C [Compound 20, 7-((3,5,6-Trimethylpyrazin-2-yl)methoxy)-3-(4-((3,5,6-trimethylpyrazin-2-yl)methoxy)phenyl)-4H-chromen-4-one]",> 40,> 40,16.5 ± 1.79,25.2 ± 1.72,10.9 ± 2.3,–
"Cc1nc(C)c(COc2cc(O)c3c(=O)cc(-c4ccccc4)oc3c2)nc1C [Compound 10, 5-Hydroxy-2-phenyl-7-((3,5,6-trimethylpyrazin-2-yl)methoxy)-4H-chromen-4-one]",> 40,> 40,26.7 ± 0.34,> 40,> 40,–
"N.N.[Cl][Pt][Cl] [DDP, reference compound]",–,–,–,–,–,IC50 ([1]; 72 h): 4.14 ± 0.16 µM; Proliferation Rate (%) 2.5 μM [6]: −23.93 ± 0.75%; Proliferation Rate (%) 5 μM [6]: −31.38 ± 1.46%; Proliferation Rate (%) 10 μM [6]: −58.24 ± 0.82%; Proliferation Rate (%) 20 μM [6]: −66.58 ± 1.75%; Proliferation Rate (%) 40 μM [6]: −82.69 ± 2.19%; IC50 [6]: 9.11 ± 0.54 µM; IC50 ([2]; 72 h): 6.75 ± 0.57 µM; IC50 [3]: 4.76 ± 0.41 µM; IC50 ([4]; 72 h): 6.73 ± 0.37 µM; IC50 ([5]; 72 h): 5.83 ± 0.59 µM
O=c1c(-c2ccc(O)cc2)coc2cc(O)cc(O)c12 [Genistein],19.8 ± 1.31,35.6 ± 1.38,34.6 ± 2.52,34.7 ± 0.63,31.13 ± 0.26,–
"Cc1nc(C)c(COc2ccc(-c3coc4cc(O)ccc4c3=O)cc2)nc1C [Compound 19, 7-Hydroxy-3-(4-((3,5,6-trimethylpyrazin-2-yl)methoxy)phenyl)-4H-chromen-4-one]",14.5 ± 0.48,10.4 ± 1.23,14.3 ± 1.17,28.9 ± 0.49,11.7 ± 1.29,Proliferation Rate (%) 2.5 μM [6]: −8.75 ± 0.38%; Proliferation Rate (%) 5 μM [6]: −19.35 ± 0.35%; Proliferation Rate (%) 10 μM [6]: −19.49 ± 2.17%; Proliferation Rate (%) 20 μM [6]: −24.22 ± 3.19%; Proliferation Rate (%) 40 μM [6]: −25.07 ± 1.02%; IC50 ([6]; Homo sapiens): > 40 µM
O=c1cc(-c2ccc(O)cc2)oc2cc(O)cc(O)c12 [Apigenin],16.1 ± 1.52,29.7 ± 1.43,30.6 ± 0.71,28.2 ± 0.38,23.4 ± 1.89,–
"Cc1nc(C)c(COc2cc3oc(-c4ccccc4)cc(=O)c3c(OCc3nc(C)c(C)nc3C)c2OCc2nc(C)c(C)nc2C)nc1C [Compound 13, 2-Phenyl-5,6,7-tris((3,5,6-trimethylpyrazin-2-yl)methoxy)-4H-chromen-4-one]",13.4 ± 2.5,> 40,17.3 ± 1.07,26.13 ± 0.11,22.4 ± 0.35,–
"Cc1nc(C)c(COc2ccc(/C=C/C(=O)c3c(O)cc(OCc4nc(C)c(C)nc4C)cc3OCc3nc(C)c(C)nc3C)cc2)nc1C [Compound 14, (E)-1-(2-Hydroxy-4,6-bis((3,5,6-trimethylpyrazin-2-yl)methoxy)phenyl)-3-(4-((3,5,6-trimethylpyrazin-2-yl)methoxy)phenyl)prop-2-en-1-one]",17.3 ± 0.47,29.8 ± 2.18,25.1 ± 1.8,10.5 ± 1.12,31.9 ± 1.96,"Proliferation Rate (%) 2.5 μM [6]: 1.62 ± 0.75%; Proliferation Rate (%) 5 μM [6]: 1.99 ± 0.23%; Proliferation Rate (%) 10 μM [6]: 14.84 ± 1.41%; Proliferation Rate (%) 20 μM [6]: 16.71 ± 0.29%; Proliferation Rate (%) 40 μM [6]: −2.32 ± 1.37%; IC50 ([6]; Homo sapiens): > 40 µM; apoptosis ratio (early and late) ([7]; Bel-7402, 10 μM): 45.5%; apoptosis ratio (early and late) ([7]; Bel-7402, 20 μM): 54.6%; cell morphology, Giemsa staining ([8]; Bel-7402, 40 μM): mainly cell fragments rather than complete cells; cell morphology, DAPI staining ([8]; Bel-7402, 10, 20, 40 μM): morphological features of apoptosis; IC50 ([4]; 72 h): 10.7 ± 1.12 µM"
O=c1c(O)c(-c2ccc(O)c(O)c2)oc2cc(O)cc(O)c12 [Quercetin],13.6 ± 0.73,> 40,20.8 ± 4.04,30.4 ± 2.51,27 ± 0.47,–
O=c1cc(-c2ccccc2)oc2cc(O)c(O)c(O)c12 [Baicalein],20.4 ± 2.07,37.9 ± 1.52,22.8 ± 3.54,21.6 ± 3.68,19.2 ± 2.72,–
